The record followed here is US9079891B2, “Compounds that modulate intracellular calcium” (CALCIMEDICA, INC., priority 2010, dated 2015).

Read-outs that look alike come from different tables or passages of the source. Bounds are passed on as bounds.

Experiment [1] relates to secreted IL-2 in Jurkat T cells. Briefly: In vitro assay of cytokine (IL-2) release from T cells. The class given is cell-based. The note with it: Jurkat E6-1 cells, PHA/TPA stimulation 20 hours, IL-2 ELISA. The procedure: In Vitro Assay of Cytokine Release from T Cells
Jurkat E6-1 cells are obtained from ATCC and maintained in complete medium with 10% FBS at 37° C./6% CO2.
The day prior to performing the assay, Jurkat T cells are plated in 90 μL of HBSS Buffer with 1.8 mM CaCl2 and 1.75% fetal bovine serum (FBS) in a 96 well plate at a density of 1.5×10^5 cells/well for 3 hours. 10 μl of 10× test compound prepared in HBSS is added and incubated for 10 minutes at 37° C./6% CO2. Cells are stimulated by the addition of 10 μl of 11×PHA/TPA (27.5 μg/mL PHA/880 nM TPA) and incubated at 37° C./6% CO2 for 20 hours. On the following day, the supernatants are collected and assayed for IL-2 levels by ELISA according to the manufacturer's protocols. The IC50 value is calculated as the concentration at which 50% of secreted IL-2 in vehicle treated cells is inhibited.
For orientation: An ELISA detects its analyte on a solid surface through an enzyme-linked reagent.

Experiment [2] deals with T1, recombinant human STIM1 and Orai1 (Homo sapiens, UniProt Q96D31).
T1 construct: c-myc (C); expressed in transfected cells; host or cells: HEK-293 cells stably expressing human STIM1 and human Orai1
Briefly: Fluorescence-based assay of store-operated calcium entry in Orai1/STIM1 stable cells (FLIPR). In kind it is cell-based. The note with it: HEK-293 cells stably expressing human Orai1/STIM1; Fluo-4; Peak-Basal signal; read-out: FLIPR_CRAC: 9 point CRC: O1S1_JR251: IC50: Peak_over_Basal. The procedure:
A. Fluorescence-Based Assay of Store-Operated Calcium Entry in Orai1/Stim1 Stable Cells.
Cells stably expressing recombinant human STIM1 and Orai1 are generated by transfecting a human Orai1 expression plasmid (pcDNA3.1-Orai1-cmyc) into HEK-293 cells stably overexpressing human STIM1 (Roos et al. 2005 JCB 169(3): 435-445). Colonies of cells stably expressing both STIM1 and Orai1 proteins are selected and then subcloned by limiting dilution. Cells were cultured at 37° C./6% CO2 in complete medium with 10% FBS and appropriate selection markers.
The day prior to performing the assay Orai1/STIM1 stable cells are plated in 50 μL of complete medium at 90-95% confluence in a 384 well plate. Cells are grown at 37° C./6% CO2 overnight. On the day of the assay, 1.5 μM fluo-4-AM (Invitrogen) in complete medium is added to the cells, which are then incubated for 1 hour at RT. Cells are washed once in Ca^2+-free HBSS (Hank's buffered saline solution) and 35 μl of Ca^2+-free HBSS is added to each well. Test compounds are added to wells in a 10 μL Ca^2+-free HBSS solution, prepared at 4.5× the desired final concentration, and incubated for 30 minutes at RT. The initial baseline fluorescence signal is then measured with a FLIPR^384 (Molecular Devices) plate reader. Calcium entry is initiated by adding 5 μl of 10×CaCl2 (10 mM) in HBSS, and changes in cellular fluorescence are measured with the FLIPR^384 plate reader. In each well, the magnitude of the fluorescence signal as a result of calcium entry into the cell is determined by calculating the difference between the peak fluorescence signal measured after calcium addition and the initial baseline fluorescence signal (designated Peak-Basal). IC50 values are typically calculated as the concentration that inhibited 50% of the Peak-Basal signal.

Experiment [3] relates to RBL-2H3 cells. Briefly: Fluorescence-based assay of store-operated calcium entry in RBL-2H3 cells (FLIPR, thapsigargin). In kind it is cell-based, rat. The note with it: Fluo-4, Upslope 0-7 sec, read-out: FLIPR_CRAC: 9 pt CRC - Fluo4_TG-D: RBL-2H3: IC50: Upslope 0-7 sec. The procedure:
B. Fluorescence-Based Assay of Store-Operated Calcium Entry in RBL-2H3 Cells.
RBL-2H3 cells are obtained from ATCC and maintained in complete medium with 10% FBS at 37° C./6% CO2.
The day prior to performing the assay, RBL-2H3 cells are plated in 50 μl of complete medium in a 384 well plate. Cells are grown at 37° C./6% CO2 overnight and grow to 50-60% confluence by the next day. On the assay day, 1.5 μM Fluo-4-AM dye (Invitrogen) in complete medium is added and incubated for 1 hour at RT. Cells are washed twice in Ca^2+-free HBSS buffer and 35 μl Ca^2+-free HBSS buffer is added to each well. 10 μl of a test compound prepared in a Ca^2+-free HBSS solution at 4.5× of the desired concentration is added to a well and incubated for 5 minutes at RT. 10 μl of thapsigargin prepared in a Ca^2+-free HBSS solution at 5.5× of the desired concentration (5.5 uM) is added to each well and incubated for an additional 25 minutes. The initial baseline fluorescence signal is measured with a FLIPR^384 (Molecular Devices) plate reader. 5 μl of 12× calcium in HBSS (12 mM) is added and changes in cellular fluorescence are measured with the FLIPR^384 plate reader. In each well, the change in the fluorescent signal as a function of time due to calcium entry into the cell is determined by calculating the difference between the fluorescent signal measured 7 seconds after calcium addition and the initial baseline fluorescence signal at time zero (t=0). This parameter is designated Upslope. The IC50 value is calculated as the concentration at which 50% of the Upslope is inhibited.

By IC50 is commonly meant the concentration that gives 50% inhibition.

T1 sequence (Q96D31 whole entry): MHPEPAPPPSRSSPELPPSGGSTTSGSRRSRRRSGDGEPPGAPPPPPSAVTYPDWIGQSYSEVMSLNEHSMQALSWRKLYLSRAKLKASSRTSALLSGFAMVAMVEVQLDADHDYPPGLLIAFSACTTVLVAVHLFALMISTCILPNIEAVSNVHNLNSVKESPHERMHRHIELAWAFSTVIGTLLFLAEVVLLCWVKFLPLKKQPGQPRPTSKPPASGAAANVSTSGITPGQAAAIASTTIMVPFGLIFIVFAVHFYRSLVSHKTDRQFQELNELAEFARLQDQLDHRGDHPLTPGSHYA

As for `Cc1nc2cc(Cl)c(-c3ccc(C(=O)Nc4ccccc4Cl)s3)cc2o1` [Example 1, [5-(5-chloro-2-methylbenzoxazol-6-yl)(2-thienyl)]-N-(2-chlorophenyl)carboxamide], the IC50 was less than 50 nM in experiment [1] (Homo sapiens), less than 600 nM in experiment [2] and less than 600 nM in experiment [3] (Rattus norvegicus).

On to `Cc1nc2cc(Cl)c(-c3ccc(C(=O)Nc4ccccc4F)s3)cc2o1` [Example 2, [5-(5-chloro-2-methylbenzoxazol-6-yl)(2-thienyl)]-N-(2-fluorophenyl)carboxamide], for which the IC50 was less than 50 nM in experiment [1] (Homo sapiens), less than 600 nM in experiment [2] and less than 600 nM in experiment [3] (Rattus norvegicus).

As to `Cc1nc2cc(Cl)c(-c3ccc(C(=O)Nc4c(F)cccc4F)s3)cc2o1` [Example 3, [5-(5-chloro-2-methylbenzoxazol-6-yl)(2-thienyl)]-N-(2,6-difluorophenyl)carboxamide], the IC50 in experiment [1] (Homo sapiens) is less than 50 nM; in experiment [2], less than 600 nM; in experiment [3] (Rattus norvegicus) it was less than 600 nM.

For `Cc1cc2scnc2cc1-c1ccc(C(=O)Nc2c(F)cccc2F)s1` [Example 4, N-(2,6-difluorophenyl)[5-(6-methylbenzothiazol-5-yl)(2-thienyl)]carboxamide], the 50% inhibitory concentration (IC50) in experiment [1] (Homo sapiens) was less than 50 nM; in experiment [2], less than 600 nM; in experiment [3] (Rattus norvegicus), less than 600 nM.

Take `Cc1cc2scnc2cc1-c1ccc(C(=O)Nc2ccccc2F)s1` [Example 5, N-(2-fluorophenyl)[5-(6-methylbenzothiazol-5-yl)(2-thienyl)]carboxamide]: the IC50 is less than 50 nM in experiment [1] (Homo sapiens), less than 600 nM in experiment [2] and less than 600 nM in experiment [3] (Rattus norvegicus).

For the molecule `Cc1cc2scnc2cc1-c1ccc(C(=O)Nc2ccccc2Cl)s1` [Example 6, N-(2-chlorophenyl)[5-(6-methylbenzothiazol-5-yl)(2-thienyl)]carboxamide], the IC50 in experiment [1] (Homo sapiens) is less than 50 nM; in experiment [2], less than 600 nM; in experiment [3] (Rattus norvegicus) it was less than 600 nM.

Turning to `O=C(Nc1c(F)cccc1F)c1ccc(-c2cc3scnc3cc2Cl)s1` [Example 7, N-(2,6-difluorophenyl)[5-(5-chlorobenzothiazol-6-yl)(2-thienyl)]carboxamide], the figures for the IC50 in experiment [1] (Homo sapiens), in experiment [2] and in experiment [3] (Rattus norvegicus) were less than 50 nM, less than 600 nM and less than 600 nM, respectively.

Regarding `O=C(Nc1ccccc1F)c1ccc(-c2cc3scnc3cc2Cl)s1` [Example 9, [5-(5-chlorobenzothiazol-6-yl)(2-thienyl)]-N-(2-fluorophenyl)carboxamide], the IC50 in experiment [1] (Homo sapiens) is less than 50 nM; in experiment [2], less than 600 nM; in experiment [3] (Rattus norvegicus), less than 600 nM.

On to `Cc1cc2c(C)noc2cc1-c1ccc(C(=O)Nc2c(F)cccc2F)s1` [Example 10, N-(2,6-difluorophenyl)[5-(3,5-dimethylbenzo[d]isoxazol-6-yl)(2-thienyl)]carboxamide], for which the results for the IC50 in experiment [1] (Homo sapiens), in experiment [2] and in experiment [3] (Rattus norvegicus) were less than 50 nM, less than 600 nM and less than 600 nM, respectively.

On to `Cc1cc2c(C)noc2cc1-c1ccc(C(=O)Nc2ccccc2F)s1` [Example 11, [5-(3,5-dimethylbenzo[d]isoxazol-6-yl)(2-thienyl)]-N-(2-fluorophenyl)carboxamide], for which the IC50 in experiment [1] (Homo sapiens) is less than 50 nM; in experiment [2], less than 600 nM; in experiment [3] (Rattus norvegicus), less than 600 nM.

Consider `Cc1cc2cn(C)nc2cc1-c1ccc(C(=O)Nc2ccccc2F)s1` [Example 13], for which the IC50 is less than 50 nM in experiment [1] (Homo sapiens), less than 600 nM in experiment [2] and less than 600 nM in experiment [3] (Rattus norvegicus).

As for `Cc1nc2cc(Cl)c(-c3cnc(NC(=O)c4ccccc4Cl)s3)cc2o1` [Example 19, N-[5-(5-chloro-2-methybenzoxazol-6-yl)(1,3-thiazol-2-yl)](2-chlorophenyl)carboxamide], the IC50 is 50 to 100 nM in experiment [1] (Homo sapiens), less than 600 nM in experiment [2] and less than 600 nM in experiment [3] (Rattus norvegicus).

For `Cc1cc2scnc2cc1-c1cnc(NC(=O)c2c(F)cccc2F)s1` [Example 20], the figures for the IC50 in experiment [1] (Homo sapiens), in experiment [2] and in experiment [3] (Rattus norvegicus) were less than 50 nM, 600 to 1200 nM and less than 600 nM, respectively.

Take `CCn1nc(C(F)(F)F)cc1-c1cnc(NC(=O)c2ccccc2Cl)s1` [Example 24, (2-chlorophenyl)-N-{5-[1-ethyl-3-(trifluoromethyl)pyrazol-5-yl](1,3-thiazol-2-yl)}carboxamide]: the IC50 was less than 50 nM in experiment [1] (Homo sapiens), 600 to 1200 nM in experiment [2] and less than 600 nM in experiment [3] (Rattus norvegicus).

With `Cn1nc(C(F)(F)F)cc1-c1cnc(NC(=O)c2ccccc2Cl)s1` [Example 27, (2-chlorophenyl)-N-{5-[1-methyl-3-(trifluoromethyl)pyrazol-5-yl](1,3-thiazol-2-yl)}carboxamide], the IC50 in experiment [1] (Homo sapiens) is less than 50 nM; in experiment [2], less than 600 nM; in experiment [3] (Rattus norvegicus) it was less than 600 nM.

For the molecule `Cn1nc(C(F)(F)F)cc1-c1cnc(NC(=O)c2c(F)cccc2F)s1` [Example 28, (2,6-difluorophenyl)-N-{5-[1-methyl-3-(trifluoromethyl)pyrazol-5-yl](1,3-thiazol-2-yl)}carboxamide], the IC50 in experiment [1] (Homo sapiens) is less than 50 nM; in experiment [2] it was less than 600 nM; in experiment [3] (Rattus norvegicus), less than 600 nM.

As to `Cn1nc(-c2ccccc2F)cc1-c1ccc(C(=O)Nc2c(F)cccc2F)s1` [Example 35, N-(2,6-difluorophenyl){5-[3-(2-fluorophenyl)-1-methylpyrazol-5-yl](2-thienyl)}carboxamide], the IC50 in experiment [1] (Homo sapiens) is less than 50 nM; in experiment [2], less than 600 nM; in experiment [3] (Rattus norvegicus), less than 600 nM.

Turning to `Cn1nc(-c2ccccc2F)cc1-c1ccc(C(=O)Nc2ccccc2Cl)s1` [Example 41], the IC50 is greater than 100 nM in experiment [1] (Homo sapiens), less than 600 nM in experiment [2] and less than 600 nM in experiment [3] (Rattus norvegicus).

Turning to `Cn1nc(-c2ccccc2)cc1-c1ccc(C(=O)Nc2c(F)cccc2F)s1` [Example 42, N-(2,6-difluorophenyl)[5-(1-methyl-3-phenylpyrazol-5-yl](2-thienyl)}carboxamide], the IC50 in experiment [1] (Homo sapiens) is less than 50 nM; in experiment [2] it was less than 600 nM; in experiment [3] (Rattus norvegicus) it was less than 600 nM.

Consider `Cn1nc(-c2ccccc2)cc1-c1ccc(C(=O)Nc2ncc(Cl)cc2F)s1` [Example 46], for which the figures for the IC50 in experiment [1] (Homo sapiens), in experiment [2] and in experiment [3] (Rattus norvegicus) were less than 50 nM, less than 600 nM and less than 600 nM, respectively.

In the case of `Cc1nc(-c2cc(-c3cnc(NC(=O)c4ccccc4Cl)s3)n(C)n2)no1` [Example 48], the IC50 is greater than 100 nM in experiment [1], less than 600 nM in experiment [2] and 600 to 1200 nM in experiment [3].

Consider `Cn1nc(-c2nccs2)cc1-c1ccc(C(=O)Nc2ccccc2Cl)s1` [Example 55], for which the IC50 in experiment [1] (Homo sapiens) was less than 50 nM; in experiment [2], less than 600 nM; in experiment [3] (Rattus norvegicus), less than 600 nM.
